Experimental data from US10017741B2, “Compositions and methods for obtaining enriched mesenchymal stem cell cultures” (StemCell Technologies Inc., priority 2013, dated 2018).

Experiments:
[1] = test system: CB-derived cultures (CD45+/CD11b+ macrophages, Sca1+ monocytes); experiment: Flow cytometry of CB-derived expansion cultures; format: cell-based, mouse
Description: c. Expansion of Human BM and Mouse BM and CB-Derived Cells Assay • 1. […] Cultures were allowed to grow for 10-14 days until adherent cells achieved 70 to 80% confluence. Mouse cultures were maintained under normal (5% CO2) or hypoxic conditions (5% CO2/5% O2) at 37 C in a cell culture incubator. Human cultures were maintained under 5% CO2 at 37 C in a humidified cell culture incubator. • 3. Adherent cells were passaged by releasing cultures from flask. Cultures were washed with 5 mL PBS and then 5 mL of 0.25% trypsin solution ([…] catalogue #07901) was added and the flasks incubated for 10 min at 37 C. To each flask, 5 mL complete medium was added to stop trypsin activity. • 4. Released cells were collected into a tube and centrifuged at 300×g for 5 minutes. • 5. Cells were resuspended in 2 mL of medium and counted using a hemocytometer. • 6. […] P1 cultures were incubated until they reached 70 to 80% confluence. • 8. Passaged cultures can be used at any time from P0 to P10 as needed for different applications.
(§1) d. Flow Cytometry Analysis • 1. Cultures of BM and CB-derived cells were trypsinized for 10 minutes and an equal volume of complete medium was added to cultures to stop trypsin activity • 2. Cell suspension was filtered through a 40 μm strainer, and cells counted using a hemocytometer • 3. Suspension was spun down at 300×g for 5 minutes. • 4. Supernatant was removed and cell pellet resuspended in FACS buffer (PBS with 2% FBS and 1 mM EDTA) • 5. A total of 1×10^5 cells in 300 μL FACS buffer was used for each flow cytometry analysis tube, including unstained, viability, compensation, and isotype controls. • 6. Cell suspensions were stained with fluorophore-labeled antibodies against CD45, CD11b, and Sca1, CD29, and viability dye. • 7. Cell suspensions were analyzed on a flow cytometer using compensation and isotype control to determine laser voltage and gating. • 8. Samples were gated on viable CD45^+ cells and 10,000 events per sample were collected. Alternatively, cells were gated on viable CD45^− cells and out of this gate the proportion of CD29+/Sca1^+ cells obtained.

[2] = test system: BM-MSCs (CD45−/CD29+/Sca1+); experiment: Total cell count with flow cytometry, BM-MSC cultures; format: cell-based, mouse
Description: as §1
Prior to flow cytometry, control and GW2580-treated cultures of BM- and CB-MSC were dissociated from tissue culture flasks by trypsinization and the total number of cells counted with the aid of a hemocytometer. Flow cytometry analysis was performed and the ratio of CD45^− cells and CD45^−/CD29^+/Sca1^+ cells applied to the total number of cells to obtain the actual number of these cells in culture (Table 2).

[3] = CB, 1 μM P0-P1 then vehicle P2-P3, analysed at P3, adherent cells
[4] = CB, 1 μM P0-P1 then vehicle P2-P3, analysed at P3, non-adherent cells
[5] = CB, P4, DMSO P0-P2 then 1 μM GW2580 P3-P4, or P4 control cultures EasySep-enriched
[6] = BM-MSCs, 2.5 uM GW2580, 14 days during P0

Structure (SMILES): COc1ccc(COc2ccc(Cc3cnc(N)nc3N)cc2OC)cc1 [GW2580, 5-(3-Methoxy-4-((4-methoxybenzyl)oxy)benzyl)pyrimidine-2,4-diamine]
- dose-response increase in CD45+/CD11b+/Sca1+ hematopoietic monocytes ([1]; CB, 1 μM): 18%
- number of CD45+/CD11b+/Sca1+ monocytes ([1]; CB, 1 μM (control 7%)): 25%
- number of CD45+ cells ([1]; CB, 1 μM (control 78%)): 64%
- CD45+/CD11b+ mature macrophages ([1]; CB, 1 μM (control 93%)): 75%
- CD45+/CD11b+/Sca1+ monocytes, of CD45+ cells [1, 3]: 2%
- CD45+/CD11b+/Sca1− mature macrophages, of CD45+ cells [1, 3]: 97%
- CD45+/CD11b+/Sca1+ monocytes, of CD45+ cells [1, 4]: < 1%
- CD45+/CD11b+/Sca1− mature macrophages, of CD45+ cells [1, 4]: 99%
- CD11b+/Sca1+ hematopoietic monocytes, of CD45+ cells ([1]; CB, 1 μM P0 to P2): 28%
- CD11b+/Sca1− mature macrophages, of CD45+ cells ([1]; CB, 1 μM P0 to P2): 62%
- overall reduction in CD45+ cells ([1]; CB, 1 μM P0 to P2): 15%
- reduction in CD45+/CD11b+/Sca1+ monocyte differentiation into mature macrophage (increase in Sca1+ fraction vs control) ([1]; CB, 1 μM P0 to P2): 22%
- CD11b+/Sca1+ hematopoietic monocytes, of CD45+ cells ([1]; CB, 1 μM P0 to P3): 20%
- CD11b+/Sca1− mature macrophages, of CD45+ cells ([1]; CB, 1 μM P0 to P3): 76%
- overall reduction in CD45+ cells ([1]; CB, 1 μM P0 to P3): 55%
- reduction in CD45+/CD11b+/Sca1+ monocyte differentiation into macrophage (increase in Sca1+ cells vs control) ([1]; CB, 1 μM P0 to P3): 8%
- reduction in CD45+/CD11b+/Sca1− mature macrophage differentiation ([1]; CB, 1 μM, at P3): 12%
- dose-response increase in CD45+/CD11b+/Sca1+ hematopoietic monocytes ([1]; CB, 5 μM): 32%
- number of CD45+/CD11b+/Sca1+ monocytes ([1]; CB, 5 μM (control 7%)): 39%
- number of CD45+ cells ([1]; CB, 5 μM (control 78%)): 36%
- CD45+/CD11b+ mature macrophages ([1]; CB, 5 μM (control 93%)): 60%
- dose-response increase in CD45+/CD11b+/Sca1+ hematopoietic monocytes ([1]; CB, 10 μM): 41%
- number of CD45+/CD11b+/Sca1+ monocytes ([1]; CB, 10 μM (control 7%)): 48%
- number of CD45+ cells ([1]; CB, 10 μM (control 78%)): 30%
- CD45+/CD11b+ mature macrophages ([1]; CB, 10 μM (control 93%)): 50%
- CD45+/CD11b+ mature macrophages, of total viable cells ([1]; CB, P1, 1 μM): 34%
- reduction in macrophages vs control ([1]; CB, P1, 1 μM): 50%
- CD11b+/Sca1+ monocytes, of CD45+ cells [1, 5]: about 75%
- CD11b+/Sca1− mature macrophages, of CD45+ cells [1, 5]: around 25%
- CD45+/CD11b+ mature macrophages, of viable cells ([1]; CB-derived cultures, 1 μM up to P2): < 1%
- actual increase in BM-MSCs (CD45−/CD29+/Sca1+) vs control ([2]; BM-MSC, 2.5 uM GW2580): 0.25 fold
- increase in number of CD45−/CD29+/Sca1+ MSCs vs control ([2]; BM-MSC, 2.5 uM GW2580): 26%
- Actual number of cells, CD45− [2, 6]: 665,331
- Actual number of cells, CD45−/CD29+/Scal+ [2, 6]: 639,450
- CD45−, Percent (Flow Cytometry) [2, 6]: 70.48%
- total cells [2, 6]: 9.44E+05
- CD45−/CD29+/Scal+, Percent (Flow Cytometry) ([2]; BM-MSCs, 2.5 uM GW2580, 14 days during P0, out of CD45− gate): 96.11%
